Assay results reported in patent US7816088B2, “Identification, isolation and elimination of cancer stem cells” (The Board of Trustees of the Leland Stanford Junior …, priority 2003, dated 2010).
Entries after “also recorded” stand apart in the source; their conditions may differ. Where a name gives a salt, the structure may show the parent alone.

Experiments:
[1] = system: CD34+Lin− stem and progenitor cells; experiment: FACS analysis of hematopoietic stem and progenitor profiles of CML patient samples before and after imatinib; type: in vivo, human
Description: Bone Marrow and Peripheral Blood Samples. Fresh human bone marrow was obtained with informed consent from healthy volunteers (AllCells, Berkeley, Calif.) as well as from allogeneic bone marrow donors (Department of Bone Marrow Transplantation, Stanford School of Medicine, Stanford, Calif.). Cytokine (G-CSF) mobilized peripheral blood samples were also obtained following apheresis from allogeneic donors.
Hematopoietic Stem Cell and Myeloid Progenitor Flow Cytometric Analysis and Cell Sorting. Mononuclear fractions were extracted following Ficoll density centrifugation according to standard methods and analyzed fresh or subsequent to rapid thawing of samples previously frozen in 90% FCS and 10% DMSO in liquid nitrogen. Prior to FACS analysis and sorting, hematopoietic stem cells (HSCs) were stained with lineage marker specific phycoerythrin (PE)-Cy5-conjugated antibodies including CD2 RPA-2.10; CD11b, ICRF44; CD20, 2H7; CD56, B159; GPA, GA-R2 (Becton Dickinson-PharMingen, San Diego), CD3, S4.1; CD4, S3.5; CD7, CD7-6B7; CD8, 3B5; CD10, 5-1B4, CD14, TUK4; CD19, SJ25-C1 (Caltag, South San Francisco, Calif.) and APC-conjugated anti-CD34, 84G12 (Becton Dickinson-Pharmingen), biotinylated anti-CD38, HIT2 (Caltag), FITC-conjugated anti-CD90 and PE conjugated anti-Flk2. […]
Myeloid progenitors were stained with the same lineage marker specific PE-Cy5-conjugated antibodies, APC-conjugated anti-CD34, 8G12 (Becton Dickinson-PharMingen) and biotinylated anti-CD38, HIT2 (Caltag) in addition to PE-conjugated anti-IL-3Rα, 9F5 (Becton Dickinson-ParMingen) and FITC-conjugated anti-CD45RA, MEM56 (Caltag) followed by staining with Streptavidin-Texas Red to visualize CD38-BIO stained cells and resuspension in propidium iodide to exclude dead cells. Unstained samples and isotype controls were included to assess background fluorescence. After staining, cells were analyzed and sorted using a modified FACS Vantage (Becton Dickinson Immunocytometry Systems, Mountain View, Calif.) equipped with a 599 nm dye laser and a 488 nm argon laser. […]

β-catenin = β-catenin FACS analysis of CML patient progenitors; type: in vivo, human; conditions: CML patients pre versus post-imatinib
Description: β-catenin FACS Analysis. FACS-separated hematopoietic stem cells, common myeloid progenitors, granulocyte/macrophage progenitors, and megakaryocyte/erythroid progenitors were fixed with 0.8% paraformaldehyde and made permeable with 0.3% saponin. Cells were stained overnight with a fluorescein isothiocyanate (FITC)-conjugated antibody to β-catenin (Transduction Laboratories) or IgG1 isotype control-FITC antibody, washed, and analyzed by FACS.

With `Cc1ccc(NC(=O)c2ccc(CN3CCN(C)CC3)cc2)cc1Nc1nccc(-c2cccnc2)n1` [imatinib, imatinib mesylate] the “number of CD34+Lin− cells” value ([1]; CML patients post-imatinib / responding to imatinib, bone marrow and peripheral blood) was “dramatic decline; also recorded: significant decrease”, the “number of CD34+CD38− and CD34+CD38+ cells” value ([1]; imatinib responsive patients) was “decreased” and the “proportion of individual myeloid progenitors” value ([1]; imatinib responsive patients) was “reverted to normal”. The “β-catenin levels (MFI) in myeloid progenitors” value (β-catenin) was “normal”.
